Laboratory results published in PMC12040169 (PLOS Biology, 2025).

Experiment: in vitro
Details: human, hela cells, % viability

Row | SMILES | viability at 28.5 h, 10 µM [%]
1 | O=C(NC(=S)Nc1ccc(N2CCN(Cc3ccccc3Cl)CC2)cc1)c1ccco1 [CBK266066] | 101
2 | Cc1nn(Cc2ccccc2)c(C)c1NC(=O)CSc1nc2sc3c(c2c(=O)n1C)CCC3 [CBK266069] | 96.4
3 | Clc1ccc(SCCN2CCNCC2)cc1 [CBK266077G] | 94.2
4 | Cc1cc(C)c(OCCOCCN2CCNCC2)c(Br)c1 [CBK266079G] | 99.6
5 | CC(=O)OC(COc1ccc2ccccc2c1Br)Cn1cnc2ccccc21 (stereo not drawn) [CBK266083] | 84.6
6 | Cc1cc(C)c2c(=O)[nH]c(SCC(=O)c3ccc(F)c(C)c3)nc2n1 [CBK266087] | 102
7 | OCCN1CCN(Cc2nc(O)c3ccccc3n2)CC1 [CBK266089] | 98.5
8 | CC(C)Oc1cccc(C(=O)Nc2ccc(N3CCN(C)CC3)cc2)c1 [CBK266090] | 90.5
9 | CN(C)C1(c2nnnn2CCOC(=O)Nc2ccc(Cl)cc2)CCCCC1 [CBK266093] | 94.5
10 | COc1ccccc1NC(=O)CSc1nc(O)c2c(C)cc(C)nc2n1 [CBK266095] | 91.8
11 | CC1(C)CC(=O)C2=C(C1)Nc1nc(SCc3ccc([N+](=O)[O-])cc3)[nH]c(=O)c1C2c1cccnc1 (stereo not drawn) [CBK266096] | 108
12 | O=C(CSc1nnc(-c2cccnc2)n1-c1ccc(Br)cc1)Nc1cc(C(F)(F)F)ccc1Cl [CBK266099] | 96.5
13 | O=C(O)CCC(=O)Nc1ccccc1C(=O)N1CCCCC1 [CBK266100] | 99.5
14 | COC(=O)Cc1ccc(NC(=S)N2CCC(C(N)=O)(N3CCCCC3)CC2)cc1 [CBK266101] | 97.6
15 | COc1nnc(-c2ccc(N3CCOCC3)c(NC(=O)COc3ccc(C)cc3)c2)c2ccccc12 [CBK266103] | 97.6
16 | Cc1cccc(Nc2nc(N)nc(CSc3nccn3C)n2)c1 [CBK266105] | 98.7
17 | CCc1ccc(Oc2c(CC(=O)O)oc3cc(O)c(CC)cc3c2=O)cc1 [CBK266108] | 106
18 | COc1ccccc1NC(=O)c1ccc(OC(C)C(=O)O)cc1 (stereo not drawn) [CBK266109] | 106
19 | O=C(O)CCN/C(=N\S(=O)(=O)c1ccccc1)c1ccccc1 [CBK266111] | 92.2
20 | Cc1nn(Cc2ccccc2)c(C)c1NC(=O)CSc1nc2c(c(C(F)(F)F)n1)CCc1ccccc1-2 [CBK266112] | 105
21 | O=C(Cn1nc(C(F)(F)F)c2c1CCC2)N1CCN(Cc2ccccc2)CC1 [CBK266113] | 109

Row | SMILES | viability at 28.5 h, 10 µM [%]
22 | Cc1ccc(N2CCN(CC(O)COc3ccc(C(=O)c4ccc(Cl)cc4)cc3)CC2)c(C)c1 (stereo not drawn) [CBK266117] | 110
23 | O=C(CSc1nnc(Cc2ccccc2)o1)Nc1c(Cl)cc(Cl)cc1Cl [CBK266119] | 99.8
24 | Nc1nnc(SCC(=O)c2ccc3ccccc3c2)s1 [CBK266120] | 97.7
25 | O=C(CSc1nc(-c2ccc(F)cc2)cc(C(F)(F)F)n1)NCCN1CCOCC1 [CBK266121] | 99.6
26 | O=C(Nc1ccc(Cl)cc1)Nc1cc(S(=O)(=O)N2CCCC2)ccc1Cl [CBK266122] | 98
27 | COc1ccc(NS(=O)(=O)c2ccc(NC(=O)c3nc4nc(C)cc(C(F)F)n4n3)cc2)cc1 [CBK266123] | 91.4
28 | CN1CCN(c2ccc(NC(=O)c3ccc(OCc4ccccc4)cc3)cc2)CC1 [CBK266124] | 99.6
29 | Cc1sc(NC(=S)NC(=O)COc2ccc(Br)cc2Cl)c(C(N)=O)c1C [CBK266127] | 111
30 | COc1ccc(S(=O)(=O)Nc2ccc(C(=O)O)cc2)cc1[N+](=O)[O-] [CBK266130] | 103
31 | CC(=O)Nc1ccc(S(=O)(=O)/N=C(\Nc2nc(C)cc(C)n2)Nc2ccccc2F)cc1 [CBK266134] | 106
32 | CCn1c(SCC(=O)N2CCC(C(N)=O)(N3CCCCC3)CC2)nnc1-c1ccccc1 [CBK266135] | 95.2
33 | O=C(O)CNS(=O)(=O)c1cc(Cl)c(Cl)cc1Cl [CBK266136] | 96.6
34 | O=C(COc1ccc2oc3c(c2c1)CCCC3)Nc1cccc2cccnc12 [CBK266137] | 101
35 | CN(C)CCNc1ccc(-c2nnc(O)c3ccccc23)cc1[N+](=O)[O-] [CBK266143] | 111
36 | CCCc1cc(O)nc(SCC(=O)Nc2cc3c(cc2C(C)=O)OCO3)n1 [CBK266144] | 92
37 | Cn1c(CNC(=O)c2ccc(Cl)cc2)nnc1SCC(=O)c1ccc(Br)cc1 [CBK266145] | 88.4
38 | CCNS(=O)(=O)c1ccc(NC(=O)c2nc3nc(C)cc(C(F)F)n3n2)cc1 [CBK266146] | 104
39 | O=C(C1=C(O)C(=O)N(CCCN2CCOCC2)C1c1cccnc1)c1cc2ccccc2o1 (stereo not drawn) [CBK266147] | 104
40 | COc1ccc(-c2cc(C(F)(F)F)nc(SCC(=O)Nc3cccnc3)n2)cc1OC [CBK266148] | 103
41 | Cc1ccc(C)n1NC(=O)c1ccccc1[N+](=O)[O-] [CBK266151] | 104
42 | O=C(CSc1nnc(-c2cccnc2)n1-c1ccc(Br)cc1)Nc1ccc2c(c1)OCO2 [CBK266153] | 93.8

Row | SMILES | viability at 28.5 h, 10 µM [%]
43 | O=C(Nc1ccc(I)cc1C(=O)Nc1cccnc1)c1ccccc1Cl [CBK266154] | 98.5
44 | O=C(Nc1ccc(S(=O)(=O)N2CCCCCC2)cc1)c1nc2ncccn2n1 [CBK266155] | 97.7
45 | O=C(Nc1scc(-c2ccc(-c3ccccc3)cc2)c1C(=O)O)c1ccco1 [CBK266156] | 108
46 | O=C(Nc1ccc(I)cc1C(=O)NCCN1CCOCC1)c1ccc(Cl)cc1Cl [CBK266157] | 100
47 | COc1ccc(S(=O)(=O)N(C)CC(=O)Nc2ccccc2C(F)(F)F)cc1OC [CBK266159] | 106
48 | Cc1nn(Cc2ccc(Cl)cc2)c(C)c1NC(=O)CSc1nc(-c2ccc(F)cc2)cc(C(F)(F)F)n1 [CBK266160] | 89.7
49 | NS(=O)(=O)c1ccc(NC(=O)CN2CCC(Cc3ccccc3)CC2)cc1 [CBK266161] | 98.6
50 | O=C(COc1ccc(Cl)cc1Cl)Nc1ccc(CN2CCCCC2)cc1 [CBK266164] | 105
51 | N#C/C(=C\c1cccn1-c1ccc(S(N)(=O)=O)cc1)c1nc2ccccc2[nH]1 [CBK266167] | 103
52 | O=C(C1=C(O)C(=O)N(CCCn2ccnc2)C1c1cccs1)c1ccc2c(c1)OCCO2 (stereo not drawn) [CBK266170] | 92
53 | O=C(COc1ccccc1)Nc1ccccc1Sc1ncnc2sc3c(c12)CCCC3 [CBK266171] | 98.4
54 | Cc1cccc(-n2c(N)cc(=O)nc2SC(C)C(=O)Nc2ccc(S(N)(=O)=O)cc2)c1 (stereo not drawn) [CBK266173] | 99.7
55 | O=C(CSc1nnc(-c2cccnc2)n1-c1ccc(Br)cc1)Nc1ccc(F)cc1 [CBK266174] | 111
56 | Nc1nc(SCCCC(=O)NC2CCCCC2)nc2sc3c(c12)CCCC3 [CBK266176] | 99.7
57 | Cc1oc2nc(SCC(=O)NCc3cccnc3)nc(N)c2c1C [CBK266178] | 106
58 | Cc1cccc(NC(=O)CSc2nc(O)c3c(C)cc(C)nc3n2)c1 [CBK266179] | 90.5
59 | NS(=O)(=O)c1ccc(NC(=O)CN2CCN(c3cccc(C(F)(F)F)c3)CC2)cc1 [CBK266180] | 105
60 | O=C(c1cccs1)N1CCN(S(=O)(=O)c2cccc([N+](=O)[O-])c2)CC1 [CBK266184] | 94.7
61 | COc1ccc(NC(=O)CSc2nnc(-c3ccncc3)n2-c2ccc(C)cc2)cc1Cl [CBK266187] | 98.3
62 | Cn1c(=O)c2[nH]c(NCCN3CCOCC3)nc2n(C)c1=O [CBK266189] | 98.6
63 | COc1cc(C=O)ccc1OCC(=O)Nc1ccc(C)c(Cl)c1 [CBK266190] | 111

Row | SMILES | viability at 28.5 h, 10 µM [%]
64 | COc1ccc(-c2cc(C(F)(F)F)nc(SCC(=O)N3CCN(C)CC3)n2)cc1OC [CBK266194] | 96.1
65 | O=C(O)c1ccc(NC(CC(=O)c2ccccc2)c2ccc(Br)cc2)cc1 (stereo not drawn) [CBK266195C] | 109
66 | Cc1cc(C(C)(C)C)cc(S(=O)(=O)Nc2ccc(O)c(C(=O)O)c2)c1C [CBK266196] | 101
67 | Cc1ccc(C2C=C(c3ccccc3)Nc3nc(N4C(=O)CCC4=O)nn32)cc1 (stereo not drawn) [CBK266197] | 98.6
68 | Cc1cc(C(F)F)n2nc(C(=O)Nc3cccc(S(=O)(=O)N4CCOCC4)c3)nc2n1 [CBK266198] | 101
69 | CCC(SC1=NCCS1)C(=O)Nc1ccc(NC(C)=O)cc1 (stereo not drawn) [CBK266199] | 97.4
70 | CC(CCc1ccccc1)NC(=O)CC1COc2ccccc2O1 (stereo not drawn) [CBK266203] | 103
71 | O=C(CSc1nnc(-c2ccncc2)n1-c1ccc(Cl)cc1)Nc1ccccc1-c1ccccc1 [CBK266205] | 104
72 | Cn1ccnc1CN1CCN(Cc2nccn2C)CC1 [CBK266206C] | 98.7
73 | COc1nnc(-c2ccc(N3CCOCC3)c(NC(=O)COc3cccc(C)c3)c2)c2ccccc12 [CBK266207] | 81.9
74 | COc1ccc(C=O)cc1CSc1nc2ccccc2[nH]1 [CBK266209] | 94.7
75 | CC(C)C1CC(CCNCc2ccc(N(C)C)cc2)(c2ccccc2)CCO1 (stereo not drawn) [CBK266210] | 98.9
76 | CC(=O)Nc1c(O)nc(SCC(=O)Nc2ccc(Cl)cc2)[nH]c1=O [CBK266214] | 106
77 | O=C(O)C(Cc1cc2ccccc2[nH]1)N1C(=O)C2CC=C(Cl)CC2C1=O (stereo not drawn) [CBK266216] | 94.2
78 | CC(C)c1ccc(S(=O)(=O)NC(CC(=O)O)c2ccccc2)cc1 (stereo not drawn) [CBK266217] | 102
79 | O=C(CSc1nnc(SCc2cccc3ccccc23)s1)c1ccc(F)cc1 [CBK266218] | 98.9
80 | CCOc1ccc(-n2c(SC/C=C/c3ccccc3)nnc2-c2cccnc2)cc1 [CBK266222] | 106
81 | Cc1cc2nc(SCCNC(=O)c3ccc(Cl)cc3)nc(C)c2cc1C [CBK266223] | 93.3
82 | O=C(COc1ccc2oc3c(c2c1)CCCC3)Nc1ccncc1 [CBK266227] | 100
83 | COc1ccc(-c2nn(C)c(=O)c3ccccc23)cc1CNC(=O)c1cc([N+](=O)[O-])ccc1OC [CBK266229] | 116
84 | Clc1ccc(Cn2ncc3c(NCCN4CCOCC4)ncnc32)cc1 [CBK266230] | 105
